Data on 64 compounds can be found in publication PMC7539012, “Hyperphosphorylated tau aggregation and cytotoxicity modulators screen identified prescription drugs linked to Alzheimer's disease and cognitive functions” (Scientific Reports, 2020).

The structures appear in SMILES notation. Structures can show the parent of a compound that is named as a salt. Where two headings read alike, the source gives them in different places.

The test system of the test is T1, 1N4R p-tau.
T1 construct: made in house; host or cells: E. coli (PIMAX system)
Nature of the test: p-tau aggregation modulator screen of 1280-compound library (ThS fluorescence net change over 16 h).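 For ThS net change: 30 µM compound with 6 µM p-tau over 16 h.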 The test is classed as biochemical. Set-up: key to PTAI>3SD: *: PTAI>3SD. As to conditions: for PTAI>3SD: flag: p-tau aggregation inhibitor, ThS net change more than 3 SD from mean.

Setting [1] is: library screen, ThS fluorescence net change over 16 h with p-tau.
[2] abbreviates: p-tau aggregation modulator screen of 1280-compound library, ThS fluorescence net change.
[3] abbreviates: p-tau aggregation modulator screen of the compound library, ThS fluorescence net change.
Setting [4] is: 1280-compound library screen, ThS fluorescence net change over 16 h.
Setting [5] is: p-tau aggregation modulator screen of 1280-compound library, […].

`COc1cc(C(=O)NCc2ccc(OCCN(C)C)cc2)cc(OC)c1OC` [Trimethobenzamide hydrochloride] showed a ThS net change under setting [1] of 322.

On to `N[C@@H]1C[C@H]1c1ccccc1` [Tranylcypromine hydrochloride], for which the ThS net change came to 377.

Under setting [2], `OC(CCN1CCCC1)(c1ccccc1)C1CCCCC1` (stereo not drawn) [Procyclidine hydrochloride] showed a ThS net change of 347.

For `COc1ccc2cc(CCC(C)=O)ccc2c1` [Nabumetone], the ThS net change under setting [2] is on record as 357.

The compound `COc1ccccc1OCC(O)CN1CCN(CC(=O)Nc2c(C)cccc2C)CC1` (stereo not drawn) [Ranolazine] had a ThS net change under setting [3] of 414.

Consider `O=C(O)/C=C\C(=O)O.O=C(O)/C=C\C(=O)O.c1ccc2nc(N3CCNCC3)ccc2c1` [Quipazine dimaleate salt], for which the ThS net change under setting [2] came out at 377.

Regarding `OC[C@H]1O[C@@H](Oc2ccc(O)cc2)[C@H](O)[C@@H](O)[C@@H]1O` [Arbutin], under setting [4], the ThS net change was found to be 409.

With `CC1(C)S[C@@H]2[C@H](NC(=O)[C@H](N)c3ccc(O)cc3)C(=O)N2[C@H]1C(=O)O` [Amoxicillin], the ThS net change under setting [4] is 388.

`N[C@@H](Cc1cc(I)c(Oc2cc(I)c(O)c(I)c2)c(I)c1)C(=O)O` [Thyroxine (L)]: under setting [1], the ThS net change came to 301.

On to `CC1(C)NC(=O)N(c2ccc([N+](=O)[O-])c(C(F)(F)F)c2)C1=O` [Nilutamide], for which, under setting [2], the ThS net change was 363.

On to `CCOC(=O)Nc1ccc2c(c1)N(C(=O)CCN1CCOCC1)c1ccccc1S2` [Moricizine hydrochloride], for which the ThS net change under setting [3] amounted to 473.

Turning to `OCCN(CCO)c1nc(N2CCCCC2)c2nc(N(CCO)CCO)nc(N3CCCCC3)c2n1` [Dipyridamole], the “PTAI>3SD” value was “*”. Under setting [1], this compound gave a ThS net change of -5843.

`C[C@@H]1C[C@H]2[C@@H]3C[C@H](F)C4=CC(=O)C=C[C@]4(C)[C@@]3(F)[C@@H](O)C[C@]2(C)[C@@]1(O)C(=O)COC(=O)C(C)(C)C` [Flumethasone pivalate] gave a ThS net change of 476.

Consider `Cn1c(=O)c2c(ncn2C)n(C)c1=O` [Caffeine], for which the ThS net change under setting [3] is recorded as 428.

As to `CCCCOC(=O)c1ccc(N)cc1` [Butamben], the ThS net change under setting [4] came out at 387.

The compound `COc1cccc2c1C(=O)c1c(O)c3c(c(O)c1C2=O)C[C@@](O)(C(C)=O)C[C@@H]3O[C@H]1C[C@H](N)[C@H](O)[C@H](C)O1` [Daunorubicin hydrochloride] came in with a ThS net change of 235.

Under setting [1], `O=C1C(O)=C([C@H]2CC[C@H](c3ccc(Cl)cc3)CC2)C(=O)c2ccccc21` [Atovaquone] registered a ThS net change of 266.

Consider `CSc1ccc2c(c1)C(N1CCN(C)CC1)Cc1ccccc1S2.O=C(O)/C=C\C(=O)O` (stereo not drawn) [Methiothepin maleate], for which the ThS net change under setting [4] was found to be 379.

In the case of `CCn1cc(C(=O)O)c(=O)c2cc(F)c(N3CCNCC3)cc21` [Norfloxacin], under setting [2], the ThS net change is listed as 340.

Turning to `C[C@@](Cc1ccc(O)c(O)c1)(NN)C(=O)O` [Carbidopa], the ThS net change under setting [4] was 395.

`C[C@]12CCC(=O)C=C1CC[C@@H]1[C@@H]2C(=O)C[C@]2(C)C(=O)CC[C@@H]12` [Adrenosterone] displayed a ThS net change under setting [5] of 334.

Take `Cc1c(N)c(=O)n(-c2ccccc2)n1C` [Ampyrone]: the ThS net change under setting [4] worked out at 388.

`CN(C)CCOC(c1ccccc1)c1ccccc1.Cn1c(=O)c2[nH]c(Cl)nc2n(C)c1=O` [Dimenhydrinate]: under setting [2], the ThS net change was 345.

For the compound `NS(=O)(=O)c1cc2c(cc1Cl)NC(CC1CCCC1)NS2(=O)=O` (stereo not drawn) [Cyclopenthiazide], the “PTAI>3SD” value is “*”. The same compound came in with a ThS net change under setting [1] of 0.

For the compound `COc1ccc(Cc2nccc3cc(OC)c(OC)cc23)cc1OC` [Papaverine hydrochloride], under setting [3], the ThS net change worked out at 427.

Under setting [4], `NCC(CC(=O)O)c1ccc(Cl)cc1` (racemic) [Baclofen (R,S)] displayed a ThS net change of 407.

Regarding `C#C[C@]1(O)CC[C@H]2[C@@H]3CCC4=CCCC[C@@H]4[C@H]3CC[C@@]21C` [Lynestrenol], the ThS net change under setting [4] is reported as 408.

`CCN(CC)CCNC(=O)c1ccc(N)cc1` [Procainamide hydrochloride]: the ThS net change under setting [4] is 379.

Compound `CNCCCC1c2ccccc2C=Cc2ccccc21` [Protriptyline hydrochloride] gave a ThS net change under setting [4] of 412.

Consider `CCCc1ncc(C[n+]2ccccc2C)c(N)n1` [Amprolium hydrochloride], for which the ThS net change came out at 424.

`CCN1CCN(c2cc3c(cc2F)c(=O)c(C(=O)O)cn3C2CC2)CC1` [Enrofloxacin] had a ThS net change under setting [2] of 364.

`c1ccc(CN(CC2=NCCN2)c2ccccc2)cc1` [Antazoline hydrochloride] had a ThS net change under setting [4] of 399.

Take `CC[N+](CC)(CC)CCOc1cccc(OCC[N+](CC)(CC)CC)c1OCC[N+](CC)(CC)CC` [Gallamine triethiodide]: the ThS net change under setting [2] was 363.

`CCOC1O[C@H]([C@@H](COCc2ccccc2)OCc2ccccc2)[C@H](OCc2ccccc2)[C@H]1O` (stereo partly drawn) [Tribenoside]: the ThS net change under setting [3] came out at 690.

As for `C[C@]12CCC(=O)C(O)=C1CC[C@@H]1[C@@H]2CC[C@]2(C)C(=O)CC[C@@H]12` [Formestane], the ThS net change is recorded as 413.

In the case of `CCc1cccc2c3c([nH]c12)C(CC)(CC(=O)O)OCC3` (stereo not drawn) [Etodolac], the ThS net change under setting [3] is given as 443.

Turning to `CC(C)(C)C(=O)OCOC(=O)[C@@H]1N2C(=O)[C@@H](/N=C/N3CCCCCC3)[C@H]2SC1(C)C` [Pivmecillinam hydrochloride], the ThS net change under setting [3] was determined as 423.

In the case of `COc1cnc(NS(=O)(=O)c2ccc(N)cc2)nc1` [Sulfameter], under setting [2], the ThS net change was found to be 357.

Compound `CN[C@H](CC(C)C)C(=O)N[C@H]1C(=O)N[C@@H](CC(N)=O)C(=O)N[C@H]2C(=O)N[C@H]3C(=O)N[C@H](C(=O)N[C@H](C(=O)O)c4cc(O)cc(O)c4-c4cc3ccc4O)[C@H](O)c3ccc(c(Cl)c3)Oc3cc2cc(c3O[C@@H]2O[C@H](CO)[C@@H](O)[C@H](O)[C@H]2O[C@H]2C[C@](C)(N)[C@H](O)[C@H](C)O2)Oc2ccc(cc2Cl)[C@H]1O` [Vancomycin hydrochloride] returned a ThS net change of 408.

Under setting [5], `C[N+](C)(C)CCCCCC[N+](C)(C)C.O.O.[Br-].[Br-]` [Hexamethonium dibromide dihydrate] had a ThS net change of 342.

Consider `CCOC(=O)O[C@]1(C(=O)OCCl)CC[C@H]2[C@@H]3CCC4=CC(=O)C=C[C@]4(C)[C@H]3[C@@H](O)C[C@@]21C` [Loteprednol etabonate], for which the ThS net change under setting [3] is on record as 531.

Under setting [1], `CCCCCCCCCCCCCCCC[N+](C)(C)CCN(Cc1ccc(OC)cc1)c1ncccn1` [Thonzonium bromide] came in with a ThS net change of 312.

`CN[C@@H]1[C@@H](O[C@H]2O[C@H](CO)[C@@H](N)[C@H](O)[C@H]2O)OC2C[C@@H](N)[C@@H](O[C@H]3[C@H](O)[C@@H](O)[C@H](N)C[C@@H]3N)OC2[C@@H]1O` (stereo partly drawn) [Apramycin] came in with a ThS net change under setting [3] of 416.

As to `COC(c1ccccc1)(c1ccccc1)[C@H](Oc1nc(C)cc(C)n1)C(=O)O` [Ambrisentan], the ThS net change under setting [3] came out at 506.

In the case of `CCC(=O)O[C@H]1CC[C@H]2[C@@H]3CCC4=CC(=O)CC[C@]4(C)[C@H]3CC[C@]12C` [Testosterone propionate], the ThS net change is 452.

Compound `Nc1nc(=S)c2ncn([C@@H]3O[C@H](CO)[C@@H](O)[C@H]3O)c2[nH]1` [Thioguanosine] gave a ThS net change under setting [4] of 385.

With `C[C@@H]1C[C@@H]([C@H](O)CC2CC(=O)NC(=O)C2)C(=O)[C@@H](C)C1` [Cycloheximide], the ThS net change came to 442.

Take `CCCCCCNC(=O)n1cc(F)c(=O)[nH]c1=O` [Carmofur, 1-hexylcarbamoyl-5-fluorouracil]: under setting [3], the ThS net change was found to be 1524.

With `CNCC(O)c1ccc(OC(=O)C(C)(C)C)c(OC(=O)C(C)(C)C)c1` (stereo not drawn) [Dipivefrin hydrochloride], under setting [2], the ThS net change was 357.

Under setting [4], `C=CCSCC1Nc2cc(Cl)c(S(N)(=O)=O)cc2S(=O)(=O)N1` (stereo not drawn) [Althiazide] showed a ThS net change of 409.

Compound `CC1CC(OC(=O)c2ccccc2O)CC(C)(C)C1` (stereo not drawn) [Homosalate] displayed a ThS net change under setting [1] of 279.

For the compound `CCN(CC)CCc1nc(-c2ccccc2)no1.O=C(O)CC(O)(CC(=O)O)C(=O)O` [Oxalamine citrate salt], the ThS net change under setting [4] was found to be 410.

For `CC(=O)OC(C)C[N+](C)(C)C` (stereo not drawn) [Methacholine chloride], the ThS net change under setting [2] is 370.

For `CN(CCCN1c2ccccc2CCc2ccccc21)CC(=O)c1ccc(Cl)cc1` [Lofepramine], under setting [2], the ThS net change is given as 375.

In the case of `CC(=O)N1CCN(c2ccc(OCC3COC(Cn4ccnc4)(c4ccc(Cl)cc4Cl)O3)cc2)CC1` (stereo not drawn) [Ketoconazole], the ThS net change under setting [2] stood at 350.

Regarding `CC(C)N(CCC(C(N)=O)(c1ccccc1)c1ccccn1)C(C)C` (stereo not drawn) [Disopyramide], the ThS net change under setting [2] was 377.

Under setting [3], `CC(=O)CC(c1ccccc1)c1c(O)c2ccccc2oc1=O` (stereo not drawn) [Warfarin] displayed a ThS net change of 413.

Take `C[C@]12N[C@H](Cc3ccccc31)c1ccccc12` [Dizocilpine maleate]: under setting [5], the ThS net change is recorded as 349.

`CCN1CCN(C(=O)N[C@@H](C(=O)N[C@@H]2C(=O)N3[C@@H]2SC(C)(C)[C@@H]3C(=O)O)c2ccccc2)C(=O)C1=O` [Piperacillin sodium salt]: the ThS net change under setting [2] turned out to be 354.

`Nc1ccc(O)c(C(=O)O)c1` [Mesalamine] gave a ThS net change under setting [2] of 363.

`CCN(CC)C(=O)N1CCN(C)CC1` [Diethylcarbamazine citrate] showed a ThS net change under setting [4] of 391.

For `COc1ccc(OC)c(C(O)CNC(=O)CN)c1` (stereo not drawn) [Midodrine hydrochloride], the ThS net change (1280-compound library screen, […]) was 385.

Under setting [2], `C[C@]12C=CC(=O)C=C1CC[C@@H]1[C@@H]2C(=O)C[C@@]2(C)[C@H]1CC[C@]2(O)C(=O)CO` [Prednisone] displayed a ThS net change of 366.

For `COc1ccc(C2CNC(=O)C2)cc1OC1CCCC1` (stereo not drawn) [Rolipram], the ThS net change under setting [4] was 406.
